# Data from patent US11304919B2, “Utilization of cilastatin in inhibiting renal disorder” (NIIGATA UNIVERSITY, priority 2018, dated 2022).
# How the values were obtained:
# C57BL/6J mice = experiment: Inhibition of contrast-induced renal injuries in murine contrast nephropathy model (Example 2); type: in vivo, mouse
# Procedure: In order to confirm the ability of cilastatin to inhibit renal injuries, C57BL/6J mice were simultaneously administered with an iodinated contrast medium and cilastatin, and the results were analyzed.
# Left kidneys were extracted from the C57BL/6J mice, and 14 days later, right kidney pedicles were ligated for 30 minutes. Thereafter, reperfusion was carried out. […]
# a) Contrast medium+cilastatin-treated group: 200 μL of iomeprol (CM)+400 mg/kg cilastatin (CS) (100 LL) b) Contrast medium+normal saline-treated group: 200 μL of iomeprol (CM)+100 μL of NS For each of the groups, after 48 hours from the medication, blood and urine samples were collected, and serum Cr, MN and cystatin C levels, and urinary Cr, NAG and KIM-1 levels were measured. Further, right kidneys were extracted and histologically evaluated by immunostaining with KIM-1 and staining with PAS. […] Serum cystatin C and urinary KIM-1 measurements were contracted to Oriental Yeast Co., Ltd.
# 0.5±: Clear but weak granular staining present focally along the luminal surface of non-atrophic proximal tubules 1+: Clear but weak granular staining completely surrounding the luminal surface of non-atrophic proximal tubules 2+: Moderately intense granular staining completely surrounding the luminal surface of non-atrophic proximal tubules and extending into intercellular junctions 3+: Strong large granular staining completely surrounding the luminal surface of non-atrophic proximal tubules and extending into intercellular junctions […]
# Individuals meeting these criteria were regarded as individuals with onset of contrast nephropathy.
# [1] = tested on: protein of interest (carrier; megalin ligand); experiment: Binding of contrast solid-phased magnetic beads to carrier protein, WB (Reference Example 5); settings: 0/3/10 mM iomeprol solid-phased beads; protein 25 ng/μL; 4° C., 4 h; FIG. 21
# From the text: A substance that can serve as a carrier for an iodinated contrast medium was selected by reference to the information reported on megalin ligands. To be specific, one protein known to be filtered at the glomeruli and resorbed by renal proximal tubular epithelial cells via megalin was selected among megalin ligands.
# The binding specificity between this protein and an iodinated contrast medium was verified using contrast solid-phased magnetic beads by following the procedures described below.
# Five milligrams each of the 0 mM/3 mM/10 mM contrast solid-phased beads prepared in Reference Example 4 were dispersed and washed according to the procedure described in Reference Example 4. Next, the protein of interest (produced by LifeSpan BioSciences, Inc.) was dissolved in 100 mM KCL to prepare a 25 ng/μL solution. The above-washed beads were each dispersed in 200 μL of the prepared solution and reacted at 4° C. for 4 hours. Then, heat-eluted samples were prepared by following the procedure described in Reference Example 4.
# The procedures for sample electrophoresis and WB analysis were performed in accordance with Reference Example 4. An antibody against the protein of interest (a polyclonal antibody produced by Bioss Inc.) was added at a concentration of 2 μg/mL and reacted at room temperature for 2 hours.
smiles,measurement,setting,value
CN(C(=O)CO)c1c(I)c(C(=O)NCC(O)CO)c(I)c(C(=O)NCC(O)CO)c1I (stereo not shown) [iomeprol],percentage of individuals with onset of contrast nephropathy,"C57BL/6J mice; 200 μL iomeprol + 100 μL normal saline, 48 h after medication",27%
same,KIM-1 expression in kidney tissue (immunostaining),"C57BL/6J mice; iomeprol + normal saline, individuals with increased serum creatinine, FIG. 17","widely expressed, mainly in the S1 and S2 segments"
same,PAS staining of kidney tissue,"C57BL/6J mice; iomeprol + normal saline, individuals with increased serum creatinine, FIG. 19",formation of vacuoles in renal proximal tubular epithelial cells was observed
same,"binding of protein of interest to contrast solid phased on beads (WB band, heat-eluted samples)",[1],bound in a specific manner
